Measured values published in patent US11369591B2, “Drug delivery from hydrogels” (Incept, LLC, priority 2015, dated 2022).
Values after ≈ are worked out from the molar mass of the structure shown. Counter-ions that a name gives are not always drawn.

How the values were obtained:
[1] = experimental water solubility when available in the scientific literature; cited from earlier work
[2] = statement in words; cited from earlier work
[3] = Steroid solubility studies in dissolution media (PBS, pH 6.3), Example 10; format: physicochemical; conditions: for solubility at 68 h: pH 6.3, aqueous buffer, thermodynamic from solid
Description: Solubility of the steroid candidates was assessed in dissolution media (PBS, pH 6.3) at ambient temperatures for 68 hours. UV detection of soluble steroid was determined relative to a standard curve.

[4] = system: vitreous of a Male New Zealand white rabbit; test: Intravitreal injection of micronized axitinib suspension, histology after 1 month; format: in vivo; conditions: for Inflammation around the injected material / Inflammation within the vitreous Chamber: semi-quantitative scale 0-5
Description: (§1) 50 μL of the 2% axitinib suspension was then drawn into a 100 μL luer lock Hamilton syringe using a 21G 1.5″ needle. The needle was swapped for a fresh 27G ½″ TW needle (Nipro). The 50 μL suspension was then injected at the 6 o'clock position within the vitreous of a Male New Zealand white rabbit. After 1 month, eyes were explanted and prepared for histology.
(§2) Two eyes were fixed (Davidson's), blocked, sectioned, mounted and stained for microscopical examination by a board certified veterinary pathologist. Eyes were sectioned according to the following scheme: A suture had been placed at the 12 o'clock position for orientation at harvest. Typically eyes were trimmed in half in the plane from 12 o'clock to 6 o'clock through the lens and optic nerve along the midline. This captures as many optic structures in one plane as is possible. The trimmed eyes were examined grossly and abnormalities noted. Each half of the globe trimmed was embedded in its own cassette. Cassette A is always the nasal half of the eye, and cassette B is always the temporal half of the eye. For each block 6 hematoxylin and eosin (H&E)-stained slides were prepared that were separated by 1000 microns (1 mm). Each slide contained 2 serial sections of eye on it. All slides were evaluated by a board-certified veterinary pathologist at Charter Preclinical Services. Tissues were scored on a semi-quantitative scale from 0-5 for any abnormalities.
Eyes were scored in several categories for signs of inflammation or other adverse findings. Inflammation scores were as follows:
1—Rare foci of change; minimal
2—Mild diffuse change or more pronounced focal change
3—Moderate diffuse change
5 μL of the 4% Axitinib suspension was then drawn into a 100 μL luer lock Hamilton syringe using a 21G 1.5″ needle. The needle was swapped for a fresh 27G ½″ TW needle (Nipro). The 50 μL suspension was then injected at the 6 o'clock position within the vitreous of a Male New Zealand white rabbit. After 1 month, eyes were explanted and prepared for histology.
as §2, with “(Davidson's fixative solution),” for “(Davidson's),”
Eyes were scored in several categories for signs of inflammation or other adverse findings as described above.
as §1, with “the 8%” for “the 2%”, “TW Nipro needle.” for “TW needle (Nipro).”, “of both eyes in” for “of a”

Row | Compound | Experimental Solubility [1] | further results
1 | CO[C@H]1C[C@@H]2CC[C@@H](C)[C@@](O)(O2)C(=O)C(=O)N2CCCC[C@H]2C(=O)O[C@H]([C@H](C)C[C@@H]2CC[C@@H](OCCO)[C@H](OC)C2)CC(=O)[C@H](C)/C=C(\C)[C@@H](O)[C@@H](OC)C(=O)[C@H](C)C[C@H](C)/C=C/C=C/C=C/1C [Everolimus] | 10 µg/mL | 
2 | CC(C)OC(=O)CCC/C=C\C[C@@H]1[C@@H](CC[C@@H](O)CCc2ccccc2)[C@H](O)C[C@@H]1O [Latanoprost] |  | solubility in aqueous solutions [2]: relatively low solubility
3 | O=c1[nH]c(=O)n([C@H]2C[C@H](O)[C@@H](CO)O2)cc1C(F)(F)F [Trifluridine] | 1,500 μg/mL | 
4 | COc1c(N2CCNC(C)C2)c(F)cc2c(=O)c(C(=O)O)cn(C3CC3)c12 (centres unmarked) [Gatifloxacin] | 60,000 μg/mL | 
5 | C[C@@H]1C[C@H]2[C@@H]3CCC4=CC(=O)C=C[C@]4(C)[C@@]3(F)[C@@H](O)C[C@]2(C)[C@@]1(O)C(=O)CO [Dexamethasone alcohol] | 89 µg/mL | 
6 | CO[C@H]1C[C@@H]2CC[C@@H](C)[C@@](O)(O2)C(=O)C(=O)N2CCCC[C@H]2C(=O)O[C@H]([C@H](C)C[C@@H]2CC[C@@H](O)[C@H](OC)C2)CC(=O)[C@H](C)/C=C(\C)[C@@H](O)[C@@H](OC)C(=O)[C@H](C)C[C@H](C)/C=C/C=C/C=C/1C [Sirolimus] | <100 µg/mL | 
7 | CCCC1O[C@@H]2C[C@H]3[C@@H]4CCC5=CC(=O)C=C[C@]5(C)[C@H]4[C@@H](O)C[C@]3(C)[C@]2(C(=O)CO)O1 (some centres unmarked) [Budesonide] | 24 µg/mL | solubility at 68 h [3]: 30 µg/mL (≈ 69.7 µM)
8 | CN1CCC(=C2c3ccccc3CC(=O)c3sccc32)CC1 [Ketotifen base] | 15 µg/mL | 
9 | N[C@@H]1CCCCN(c2c(F)cc3c(=O)c(C(=O)O)cn(C4CC4)c3c2Cl)C1 [Besifloxacin Base] | 90 µg/mL | 
10 | Aflibercept | >100,000 μg/mL | 
11 | CNC(=O)c1ccccc1Sc1ccc2c(/C=C/c3ccccn3)n[nH]c2c1 [Axitinib] | 1 µg/mL | Other adverse findings (retina, sclera, lens, etc.) ([4]; 100 μg): none; Inflammation around the injected material ([4]; 100 μg): 0.04±0.29; Inflammation within the vitreous Chamber ([4]; 100 μg): 0.0±0.0; Other adverse findings (retina, sclera, lens, etc.) ([4]; 200 μg): none; Inflammation around the injected material ([4]; 200 μg): 0.08±0.37; Inflammation within the vitreous Chamber ([4]; 200 μg): 0.14±0.35; Other adverse findings (retina, sclera, lens, etc.) ([4]; 400 ug, both eyes): none; Inflammation around the injected material ([4]; 400 ug, both eyes): 0.14±0.35; Inflammation within the vitreous Chamber ([4]; 400 ug, both eyes): 0.14±0.35
12 | CC[C@H]1OC(=O)[C@H](C)[C@@H](O[C@H]2C[C@@](C)(OC)[C@@H](O)[C@H](C)O2)[C@H](C)[C@@H](O[C@@H]2O[C@H](C)C[C@H](N(C)C)[C@H]2O)[C@](C)(O)C[C@@H](C)CN(C)[C@H](C)[C@@H](O)[C@]1(C)O [Azithromycin] | 69 µg/mL | 
13 | CC(C(=O)O)c1ccc(-c2ccccc2)c(F)c1 (centres unmarked) [Flurbiprofen Sodium] | 61 µg/mL | 
14 | CCN(CC)CCNC(=O)c1c(C)[nH]c(/C=C2\C(=O)Nc3ccc(F)cc32)c1C [Sunitinib Malate] | 25,000 μg/mL | 
15 | CCOC(=O)O[C@]1(C(=O)OCCl)CC[C@H]2[C@@H]3CCC4=CC(=O)C=C[C@]4(C)[C@H]3[C@@H](O)C[C@@]21C [Loteprednol etabonate] | 5 µg/mL | 
16 | CCC(=O)O[C@]1(C(=O)SCF)[C@H](C)C[C@H]2[C@@H]3C[C@H](F)C4=CC(=O)C=C[C@]4(C)[C@@]3(F)[C@@H](O)C[C@@]21C [Fluticasone Propionate] | 1 µg/mL | 
17 | Nc1c(CC(=O)O)cccc1C(=O)c1ccc(Br)cc1 [Bromfenac] | 53,000 μg/mL | 
18 | CC(C)(C)NC[C@H](O)COc1nsnc1N1CCOCC1 [Timolol Maleate] | 2,800 μg/mL | 
19 | CC(C)OC(=O)CCC/C=C\C[C@@H]1[C@@H](/C=C/[C@@H](O)COc2cccc(C(F)(F)F)c2)[C@H](O)C[C@@H]1O [Travoprost] | 44 µg/mL | 
20 | COc1cc2c(Nc3ccc(Br)cc3F)ncnc2cc1OCC1CCN(C)CC1 [Vandetanib (ZD6474), Vandetanib] | 8 µg/mL | 
21 | C=CC[C@@H]1/C=C(\C)C[C@H](C)C[C@H](OC)[C@H]2O[C@@](O)(C(=O)C(=O)N3CCCC[C@H]3C(=O)O[C@H](/C(C)=C/[C@@H]3CC[C@@H](O)[C@H](OC)C3)[C@H](C)[C@@H](O)CC1=O)[C@H](C)C[C@@H]2OC [Tacrolimus] | 8 µg/mL | 
22 | C[C@H]1C[C@H]2[C@@H]3CCC4=CC(=O)C=C[C@]4(C)[C@@]3(F)[C@@H](O)C[C@]2(C)[C@@]1(O)C(=O)COP(=O)([O-])[O-].[Na+].[Na+] [Betamethasone Sodium Phosphate] | 67 µg/mL | Max Solubility in PBS, pH 6.3 ([3]; PBS pH 6.3, ambient temperatures, 68 hours, UV detection): > 100,000 μg/mL; Solubility in water, descriptive ([3]; printed beside the Example 10 value): freely soluble
23 | CN1CCC(=C2c3ccccc3CC(=O)c3sccc32)CC1 [Ketotifen fumarate] | 10,000 μg/mL | 
24 | CN1CCCC(n2nc(Cc3ccc(Cl)cc3)c3ccccc3c2=O)CC1 (centres unmarked) [Azelastine Base] | 50 µg/mL | 
25 | O=C(O)Cc1ccccc1Nc1c(Cl)cccc1Cl [Diclofenac] | 600 µg/mL | 
26 | CC1(C)O[C@@H]2C[C@H]3[C@@H]4CCC5=CC(=O)C=C[C@]5(C)[C@@]4(F)[C@@H](O)C[C@]3(C)[C@]2(C(=O)CO)O1 [Triamcinolone Acetonide] |  | solubility at 68 h [3]: 20 µg/mL (≈ 46 µM)
27 | C[C@@H]1C[C@H]2[C@@H]3CCC4=CC(=O)C=C[C@]4(C)[C@@]3(Cl)[C@@H](O)C[C@]2(C)[C@@]1(OC(=O)c1ccco1)C(=O)CCl [Mometasone furoate] | 20 µg/mL | 
28 | CN1CCCC(n2nc(Cc3ccc(Cl)cc3)c3ccccc3c2=O)CC1.O=C(O)c1cc2ccccc2c(Cc2c(O)c(C(=O)O)cc3ccccc23)c1O [Azelastine Embonate] | 15 µg/mL | 
29 | CC1(C)O[C@@H]2C[C@H]3[C@@H]4C[C@H](F)C5=CC(=O)C=C[C@]5(C)[C@H]4[C@@H](O)C[C@]3(C)[C@]2(C(=O)CO)O1 [Flunisolide, Anhydrous, USP, Flunisolide] |  | solubility at 68 h [3]: 90 µg/mL (≈ 207 µM)
